Measured values taken from article PMC12036971 (2025).

Molecular target: Akita16 HA (crystal construct) (Influenza A virus (A/black swan/Akita/1/2016(H5N6)), UniProt A0A1L7N0F8)

## CC(=O)N[C@H]1[C@H](O[C@H]2[C@@H](O)[C@@H](CO)O[C@@H](O[C@H]3[C@H](O)[C@@H](O)C(O)O[C@@H]3CO)[C@@H]2O)O[C@H](CO)[C@@H](O)[C@@H]1O[C@@H]1O[C@H](CO)[C@H](O)[C@H](O[C@]2(C(=O)O)C[C@H](O)[C@@H](NC(C)=O)[C@H]([C@H](O)[C@H](O)CO)O2)[C@H]1O (stereo partly shown) [LSTa, NeuAcα2-3Galβ1-3GlcNAcβ1-3Galβ1-4Glc]
  X-ray crystal structure of complex, 2.71 Å: Akita16-WT HA structure with avian-type receptor analog, LSTa
